Data from patent publication US11602514B2, “Medicament having anti-inflammatory bowel disease function, and preparation method therefor and application thereof” (SUZHOU PHARMAVAN CO., LTD, priority 2018, dated 2023).

Tested on: acute IBD model induced by 5% DSS
Assay: DSS-induced mouse in vivo model of IBD
Parameters: species or system C57BL/6 mice
Details: tail vein 5, 2.5, 1.25 mg/kg, 4 days
Method: Female SPF-grade C57BL/6 mice each with an age of 6 to 8 weeks were subjected to adaptive feeding for 3-7 days, and then fed with 5% aqueous solution of DSS in a free water-drinking manner (day0). The original aqueous solution of DSS was replaced with a fresh aqueous solution of DSS every 2 days. After the mice freely drank the aqueous solution of DSS for 7 days (day7), they were fed with fresh purified water. After 4 days of modeling, medicament was administered on the 5th day of modeling. Animals were administered via tail veins with 5 mg/kg, 2.5 mg/kg, and 1.25 mg/kg of the medicament for treatment. The animals were administered with the medicament for 4 continuous days, and then observed for 1 day. The experiments were terminated 24 h after the last administration.
Detection indexes: the weight of each group of animals was observed and recorded every day, and feces of each animal were collected to detect occult blood in the feces. If obvious blood in the feces cannot be determined, an occult blood detection kit was used for confirming the occult blood, and the result was recorded on an experimental record paper and photographed. When the experiments ended, animal serum was collected to detect the expression of IL-6 in the blood. At the same time, the fecal traits, occult blood, and weight change rate of each animal were scored, and the scores were added to give a DAI score for the animal. Colorectal tissue samples of the animals were collected for the subsequent pathological detection and detection of MPO in the tissue.

COc1c2cc(c(O)c1OC)CCCCC(OS(=O)(=O)O)CCc1ccc(O)c-2c1 (centres unmarked) [compound H, 11-sulfonyloxy myricanol]
weight change rate (weight loss trend) (FIG. 10 (5 mg/kg vs 5% DSS p<0.01)): slowing the weight loss trend | level of IL-6 protein in serum (FIG. 11): significant anti-inflammatory effect | DAI score (FIG. 12): significant effect of reducing the DAI scores | colorectal pathology (injuries of intestinal mucosa) (FIG. 13): significant effect of repairing injuries of intestinal mucosa | colorectal MPO (oxidative injuries) (FIG. 14): a certain effect of improving oxidative injuries
